Data from US10544143B2, “4-azaindole compounds” (BRISTOL-MYERS SQUIBB COMPANY, priority 2017, dated 2020).
Read-outs that look alike come from different tables or passages of the source.

Experiments:
[1] = target: human TLR8 (Homo sapiens (Human), UniProt Q9NR97); experiment: TLR8 inhibition reporter assay (HEK-Blue SEAP);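 note: SEAP driven by IFN-β minimal promoter carrying NF-κB and AP-1 sites, compounds dosed 0.05 nM to 50 µM for 22 h, inhibition scaled between agonist-plus-DMSO and reference-inhibitor wells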
human TLR8, sequence (Q9NR97 27-1041): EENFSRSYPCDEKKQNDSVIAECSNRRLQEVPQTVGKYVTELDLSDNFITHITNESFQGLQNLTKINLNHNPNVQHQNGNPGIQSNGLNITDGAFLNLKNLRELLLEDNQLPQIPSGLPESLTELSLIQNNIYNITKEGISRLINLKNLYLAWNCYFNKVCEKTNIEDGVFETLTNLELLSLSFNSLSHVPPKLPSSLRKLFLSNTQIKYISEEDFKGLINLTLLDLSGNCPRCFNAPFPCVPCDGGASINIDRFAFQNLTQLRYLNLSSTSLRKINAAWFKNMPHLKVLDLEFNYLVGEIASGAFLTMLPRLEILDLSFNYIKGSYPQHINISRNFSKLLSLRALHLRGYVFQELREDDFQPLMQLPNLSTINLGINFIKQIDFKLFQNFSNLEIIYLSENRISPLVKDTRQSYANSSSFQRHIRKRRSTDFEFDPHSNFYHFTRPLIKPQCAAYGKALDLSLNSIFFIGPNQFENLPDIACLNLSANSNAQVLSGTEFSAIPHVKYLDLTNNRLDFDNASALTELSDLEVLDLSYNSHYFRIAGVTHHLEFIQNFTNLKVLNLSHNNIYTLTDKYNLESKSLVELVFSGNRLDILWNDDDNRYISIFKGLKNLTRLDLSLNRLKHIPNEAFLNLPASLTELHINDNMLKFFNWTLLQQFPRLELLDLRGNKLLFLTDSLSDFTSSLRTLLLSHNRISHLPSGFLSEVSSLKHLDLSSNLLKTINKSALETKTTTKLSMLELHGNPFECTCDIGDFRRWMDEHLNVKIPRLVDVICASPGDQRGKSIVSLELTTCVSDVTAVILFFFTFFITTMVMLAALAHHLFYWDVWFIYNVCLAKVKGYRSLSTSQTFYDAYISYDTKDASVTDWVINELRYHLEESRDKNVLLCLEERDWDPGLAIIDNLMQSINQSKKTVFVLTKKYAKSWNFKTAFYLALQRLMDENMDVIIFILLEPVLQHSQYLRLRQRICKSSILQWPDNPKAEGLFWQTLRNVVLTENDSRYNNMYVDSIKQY
Experimental: (§1) HEK-Blue™-cells (Invivogen) overexpressing human TLR7, TLR8 or TLR9 receptors were used for screening inhibitors of these receptors using an inducible SEAP (secreted embryonic alkaline phosphatase) reporter gene under the control of the IFN-β minimal promoter fused to five NF-κB and AP-1-binding sites. Briefly, cells are seeded into Greiner 384 well plates (15000 cells per well for TLR7, 20,000 for TLR8 and 25,000 for TLR9) and then treated with test compounds in DMSO to yield a final dose response concentration range of 0.05 nM-50 μM. After a 30 minute compound pre-treatment at room temperature, the cells are then stimulated with a TLR7 ligand (gardiquimod at a final concentration of 7.5 μM), TLR8 ligand (R848 at a final concentration of 15.9 μM) or TLR9 ligand (ODN2006 at a final concentration of 5 nM) to activate NF-κB and AP-1 which induce the production of SEAP. After a 22 hour incubation at 37° C., 5% CO2, SEAP levels are determined with the addition of HEK-Blue™ Detection reagent (Invivogen), a cell culture medium that allows for detection of SEAP, according to manufacturer's specifications.

[2] = target: human TLR9 (Homo sapiens (Human), UniProt Q9NR96); experiment: TLR9 inhibition reporter assay (HEK-Blue SEAP);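 note: SEAP driven by an IFN-β minimal promoter with NF-κB and AP-1 sites, read after 22 h, compounds dosed 0.05 nM–50 µM, inhibition scaled between agonist plus DMSO and reference-inhibitor wells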
human TLR9, sequence (Q9NR96 26-1032): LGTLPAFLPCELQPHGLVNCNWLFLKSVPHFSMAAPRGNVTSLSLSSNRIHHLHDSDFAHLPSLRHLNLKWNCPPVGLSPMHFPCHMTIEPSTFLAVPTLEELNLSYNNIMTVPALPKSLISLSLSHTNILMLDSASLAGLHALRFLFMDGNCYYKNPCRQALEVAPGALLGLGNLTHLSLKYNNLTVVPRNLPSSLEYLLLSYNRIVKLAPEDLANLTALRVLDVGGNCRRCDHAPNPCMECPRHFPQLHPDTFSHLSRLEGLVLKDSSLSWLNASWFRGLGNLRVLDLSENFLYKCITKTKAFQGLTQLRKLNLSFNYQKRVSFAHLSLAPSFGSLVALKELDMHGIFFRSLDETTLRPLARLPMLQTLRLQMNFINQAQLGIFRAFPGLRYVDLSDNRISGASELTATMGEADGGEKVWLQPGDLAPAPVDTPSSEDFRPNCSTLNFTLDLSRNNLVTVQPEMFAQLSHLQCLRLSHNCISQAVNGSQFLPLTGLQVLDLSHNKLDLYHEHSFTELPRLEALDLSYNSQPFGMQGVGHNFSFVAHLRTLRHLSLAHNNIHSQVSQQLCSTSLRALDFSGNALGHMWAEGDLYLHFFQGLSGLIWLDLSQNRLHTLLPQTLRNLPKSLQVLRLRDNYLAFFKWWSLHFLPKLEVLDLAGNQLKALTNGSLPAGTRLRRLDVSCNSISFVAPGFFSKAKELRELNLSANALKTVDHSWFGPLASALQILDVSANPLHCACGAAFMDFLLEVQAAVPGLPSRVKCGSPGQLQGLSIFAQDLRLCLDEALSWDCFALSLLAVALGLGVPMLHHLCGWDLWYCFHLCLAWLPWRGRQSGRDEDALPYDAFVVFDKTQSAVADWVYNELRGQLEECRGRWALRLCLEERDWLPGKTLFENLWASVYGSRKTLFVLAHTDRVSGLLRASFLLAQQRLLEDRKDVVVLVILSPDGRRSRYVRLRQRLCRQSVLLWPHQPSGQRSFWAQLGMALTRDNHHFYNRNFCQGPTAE

[3] = target: human TLR7 (Homo sapiens (Human), UniProt Q9NYK1); experiment: TLR7 inhibition reporter assay (HEK-Blue SEAP); format: cell-based
human TLR7, sequence (Q9NYK1 27-1049): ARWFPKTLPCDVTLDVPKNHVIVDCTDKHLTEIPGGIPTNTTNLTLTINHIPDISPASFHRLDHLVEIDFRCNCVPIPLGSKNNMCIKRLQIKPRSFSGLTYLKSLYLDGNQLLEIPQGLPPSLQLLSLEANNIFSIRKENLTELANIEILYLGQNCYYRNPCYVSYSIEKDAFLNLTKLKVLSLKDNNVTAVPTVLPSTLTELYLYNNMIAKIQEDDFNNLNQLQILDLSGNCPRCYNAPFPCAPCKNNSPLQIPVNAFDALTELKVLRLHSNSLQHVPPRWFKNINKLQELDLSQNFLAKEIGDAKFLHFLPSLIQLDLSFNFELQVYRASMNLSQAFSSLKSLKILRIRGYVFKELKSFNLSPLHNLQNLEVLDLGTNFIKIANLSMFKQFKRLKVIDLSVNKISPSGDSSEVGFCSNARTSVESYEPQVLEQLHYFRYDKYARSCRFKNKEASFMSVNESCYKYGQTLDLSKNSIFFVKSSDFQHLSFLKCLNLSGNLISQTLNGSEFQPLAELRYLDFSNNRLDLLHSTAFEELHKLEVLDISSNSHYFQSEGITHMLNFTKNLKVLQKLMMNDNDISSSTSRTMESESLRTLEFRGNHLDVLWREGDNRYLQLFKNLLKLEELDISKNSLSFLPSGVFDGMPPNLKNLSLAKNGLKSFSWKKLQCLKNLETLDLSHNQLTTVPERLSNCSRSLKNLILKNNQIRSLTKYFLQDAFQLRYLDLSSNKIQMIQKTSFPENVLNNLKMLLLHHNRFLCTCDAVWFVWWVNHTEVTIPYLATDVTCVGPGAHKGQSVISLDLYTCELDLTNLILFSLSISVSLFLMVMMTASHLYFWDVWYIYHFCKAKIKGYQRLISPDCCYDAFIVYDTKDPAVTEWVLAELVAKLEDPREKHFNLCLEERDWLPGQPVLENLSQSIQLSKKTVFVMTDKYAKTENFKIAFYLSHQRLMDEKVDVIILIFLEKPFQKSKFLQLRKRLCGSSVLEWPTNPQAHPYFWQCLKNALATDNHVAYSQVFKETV
Experimental: as §1

[4] = read-out: TLR8 IC50, HEK-Blue cells overexpressing human TLR8, SEAP reporter, R848 15.9 μM
[5] = read-out: TLR9 IC50, HEK-Blue cells overexpressing human TLR9, SEAP reporter, ODN2006 5 nM
[6] = HEK-Blue cells overexpressing human TLR7, SEAP reporter, gardiquimod 7.5 μM
[7] = read-out: TLR8 IC50, HEK-Blue cells overexpressing human TLR8, R848 15.9 μM stimulation, SEAP reporter
[8] = read-out: TLR9 IC50, HEK-Blue cells overexpressing human TLR9, ODN2006 5 nM stimulation, SEAP reporter
[9] = HEK-Blue cells overexpressing human TLR7, gardiquimod 7.5 μM stimulation, SEAP reporter
[10] = read-out: TLR8 IC50, HEK-Blue human TLR8 cells, R848 15.9 μM
[11] = read-out: TLR9 IC50, HEK-Blue human TLR9 cells, ODN2006 5 nM
[12] = HEK-Blue human TLR7 cells, gardiquimod 7.5 μM

Structure (SMILES) | IC50 [1, 4] | IC50 [2, 5] | IC50 [3, 6] | IC50 [1, 7] | IC50 [2, 8] | IC50 [3, 9] | also measured
CC(C)c1c(-c2cn(C)c3ncccc23)[nH]c2ccc(CCC3CN(C(=O)CN(C)C)C3)nc12 [Example 703] | 16 nM | 326 nM | 8.9 nM | – | – | – | –
COc1cc(-c2[nH]c3ccc(C4CCC(NCC(=O)N(C)C)CC4)nc3c2C(C)C)cn2ncnc12 (stereo not drawn) [Example 231] | – | – | – | 3 nM | 365 nM | 0.61 nM | –
COc1cc(-c2[nH]c3ccc(C4CCC(N(C)CC(=O)N(C)C)CC4)nc3c2C(C)C)cn2ncnc12 (stereo not drawn) [Example 211] | – | – | – | 6.8 nM | 585 nM | 1.1 nM | –
Cc1c(-c2[nH]c3ccc(C4CCC(O)(CN)CC4)nc3c2C(C)C)cn2ncnc2c1C (stereo not drawn) [Example 1035, 1-(aminomethyl)-4-(2-(7,8-dimethyl-[1,2,4]triazolo[1,5-a]pyridin-6-yl)-3-isopropyl-1H-pyrrolo[3,2-b]pyridin-5-yl)cyclohexan-1-ol] | – | – | – | – | – | – | IC50 [1, 10]: 21 nM; IC50 [2, 11]: 3670 nM; IC50 [3, 12]: 1.7 nM
COc1cc(-c2[nH]c3ccc(OCC4CN(C)C4)nc3c2C(C)C)cn2ncnc12 [Example 608, 6-(3-isopropyl-5-((1-methylazetidin-3-yl)methoxy)-1H-pyrrolo[3,2-b]pyridin-2-yl)-8-methoxy-[1,2,4]triazolo[1,5-a]pyridine] | 6.1 nM | 1710 nM | 1.1 nM | – | – | – | –
Cc1c(-c2[nH]c3ccc(NCCN)nc3c2C(C)C)cn2ncnc2c1C [Example 1001] | – | – | – | – | – | – | IC50 [1, 10]: 40 nM; IC50 [2, 11]: 11700 nM; IC50 [3, 12]: 70 nM
COCCNC1CCC(c2ccc3[nH]c(-c4cn5ncnc5c(C)c4C)c(C(C)C)c3n2)CC1 (stereo not drawn) [Example 429] | 5.2 nM | 7000 nM | 3.4 nM | – | – | – | –
Cc1c(-c2[nH]c3cc(F)c(C4CCC(NC5CCOCC5)CC4)nc3c2C(C)C)cn2ncnc2c1C (stereo not drawn) [Example 504] | 0.64 nM | 3740 nM | 0.55 nM | – | – | – | –
Cc1c(-c2[nH]c3ccc(N4CCN(C(=O)CN(C)C(C)(C)C)[C@H](C)C4)nc3c2C(C)C)cn2ncnc2c1C [Example 944] | – | – | – | – | – | – | IC50 [1, 10]: 4.9 nM; IC50 [2, 11]: 17100 nM; IC50 [3, 12]: 3.1 nM
CCN1CC2(C1)CN(c1ccc3[nH]c(-c4cc(OC)c5ncnn5c4)c(C(C)C)c3n1)C2 [Example 1018] | – | – | – | – | – | – | IC50 [1, 10]: 8.9 nM; IC50 [2, 11]: 2780 nM; IC50 [3, 12]: 1.7 nM
CC(C)c1c(-c2cn(C)c3ncccc23)[nH]c2ccc(C3CCC(NCCS(C)(=O)=O)CC3)nc12 (stereo not drawn) [Example 247] | – | – | – | 1.2 nM | 825 nM | 1.2 nM | –
Cc1c(-c2[nH]c3ccc(N4CCC(N(C)CC5(C)COC5)CC4)nc3c2C(C)C)cn2ncnc2c1C [Example 996] | – | – | – | – | – | – | IC50 [1, 10]: 0.4 nM; IC50 [2, 11]: 11000 nM; IC50 [3, 12]: 1.3 nM
Cc1c(-c2[nH]c3ccc(C4CCC(NCCC#N)CC4)nc3c2C(C)C)cn2ncnc2c1C (stereo not drawn) [Example 384] | – | – | – | 25 nM | 1530 nM | 13 nM | –
COc1cc(-c2[nH]c3ccc(C4CCC(N(CCS(C)(=O)=O)CCS(C)(=O)=O)C4)nc3c2C(C)C)cn2ncnc12 (stereo not drawn) [Example 726] | 2090 nM | 39400 nM | 1360 nM | – | – | – | –
Cc1c(-c2[nH]c3ccc(N4C[C@@H](C)N(C(=O)CCN5CC6(CCOC6)C5)C[C@@H]4C)nc3c2C(C)C)cn2ncnc2c1C [Example 960] | – | – | – | – | – | – | IC50 [1, 10]: 0.32 nM; IC50 [2, 11]: 3170 nM; IC50 [3, 12]: 0.77 nM
Cc1c(-c2[nH]c3ccc(C4CCN(C5CCN(C)C5=O)CC4)nc3c2C(C)C)cn2ncnc2c1C (stereo not drawn) [Example 563] | 2.4 nM | 4260 nM | 0.83 nM | – | – | – | –
COCc1cc(-c2[nH]c3ccc(C4CCC(NCC(=O)N(C)C)CC4)nc3c2C(C)C)cn2ncnc12 (stereo not drawn) [Example 230] | – | – | – | 33 nM | 2460 nM | 38 nM | –

Structure (SMILES) | IC50 [1, 4] | IC50 [2, 5] | IC50 [3, 6] | IC50 [1, 7] | IC50 [2, 8] | IC50 [3, 9] | also measured
CNC1CCC(c2ccc3[nH]c(-c4cc(OC)c5ncnn5c4)c(C(C)C)c3n2)CC1 (stereo not drawn) [Example 189] | – | – | – | 6.7 nM | 313 nM | 1.6 nM | –
COc1cc(-c2[nH]c3ccc(N4CCN(CCS(C)(=O)=O)CC4)nc3c2C(C)C)cn2ncnc12 [Example 95] | – | – | – | 3.6 nM | > 50000 nM | 4.9 nM | –
COc1cc(-c2[nH]c3ccc(C4CN(C(=O)CN(C)C)C4)nc3c2C(C)C)cn2ncnc12 [Example 652] | 22 nM | 1600 nM | 3 nM | – | – | – | –
CC(C)c1c(-c2cn(C)c3ncncc23)[nH]c2ccc(N3CCN(C4CCOCC4)CC3)nc12 [Example 127] | – | – | – | 0.48 nM | 5900 nM | 4.6 nM | –
Cc1c(-c2[nH]c3ccc(N4CCN(C(=O)CNC5CC5)C[C@H]4C)nc3c2C(C)C)cn2ncnc2c1C [Example 836] | – | – | – | – | – | – | IC50 [1, 10]: 4.1 nM; IC50 [2, 11]: 16400 nM; IC50 [3, 12]: 2.4 nM
COc1cc(-c2[nH]c3ccc(C4CCC(=O)CC4)nc3c2C(C)C)cn2ncnc12 [Example 176] | – | – | – | 84 nM | 16000 nM | 5.2 nM | –
CC(C)c1c(-c2cn(C)c3ncccc23)[nH]c2ccc(CCC3CNC3)nc12 [Example 690] | 31 nM | 288 nM | 15 nM | – | – | – | –
[2H]C([2H])(C(=O)N1C([2H])([2H])C([2H])([2H])N(c2ccc3[nH]c(-c4cn5ncnc5c(C)c4C)c(C(C)C)c3n2)C([2H])([2H])C1([2H])[2H])N(C)C (single isomer, unassigned) [Example 890] | – | – | – | – | – | – | IC50 ([1]; TLR8 IC50, HEK-Blue human TLR8 cells, R848 15.9 μM): 1.4 nM; IC50 ([2]; TLR9 IC50, HEK-Blue human TLR9 cells, ODN2006 5 nM): 14700 nM; IC50 [3, 12]: 1.8 nM
CCn1cc(-c2[nH]c3ccc(C4CCC(NC5CCOCC5)CC4)nc3c2C(C)C)c2cccnc21 (stereo not drawn) [Example 289] | – | – | – | 11 nM | 967 nM | 3.5 nM | –
COc1cc(-c2[nH]c3ccc(N4CC5(CN(C)C5)C4)nc3c2C(C)C)cn2ncnc12 [Example 1017] | – | – | – | – | – | – | IC50 [1, 10]: 16 nM; IC50 [2, 11]: 3300 nM; IC50 [3, 12]: 1.3 nM
Cc1c(-c2[nH]c3ccc(C4CCN(CC(=O)N(C)C)CC4)nc3c2C(C)C)cn(C)c(=O)c1Cl [Example 567] | 18 nM | 2320 nM | 18 nM | – | – | – | –
COc1cc(-c2[nH]c3ccc(C4CCC(N(C)Cc5ncccn5)CC4)nc3c2C(C)C)cn2ncnc12 (stereo not drawn) [Example 209] | – | – | – | 4 nM | 641 nM | 0.71 nM | –
Cc1cc(-c2[nH]c3ccc(OC4CCN(C)CC4)nc3c2C(C)C)cn2ncnc12 [Example 594, 6-(3-isopropyl-5-((1-methylpiperidin-4-yl)oxy)-1H-pyrrolo[3,2-b]pyridin-2-yl)-8-methyl-[1,2,4]triazolo[1,5-a]pyridine] | 16 nM | 7910 nM | 3.9 nM | – | – | – | –
CCN1CCN(c2ccc3[nH]c(-c4cc(OC)c5ncnn5c4)c(C(C)C)c3n2)CC1 [Example 119] | – | – | – | 0.96 nM | 14100 nM | 1.8 nM | –
Cc1cnc(CNC2CCC(c3ccc4[nH]c(-c5cn(C)c6ncccc56)c(C(C)C)c4n3)CC2)cn1 (stereo not drawn) [Example 205] | – | – | – | 1 nM | 134 nM | 0.42 nM | –
Cc1c(-c2[nH]c3ccc(N4CC5(C4)CN(C4COC4)C5)nc3c2C(C)C)cn2ncnc2c1C [Example 1011] | – | – | – | – | – | – | IC50 [1, 10]: 22 nM; IC50 [2, 11]: 23700 nM; IC50 [3, 12]: 11 nM
Cc1c(-c2[nH]c3ccc(N4CCN(C(=O)CCN(C)C)C[C@H]4C)nc3c2C(C)C)cn2ncnc2c1C [Example 823] | – | – | – | – | – | – | IC50 [1, 10]: 1.2 nM; IC50 [2, 11]: 6930 nM; IC50 [3, 12]: 0.49 nM

Further lines, with some results ahead:

IC50 [1, 4] | IC50 [2, 5] | IC50 [3, 6] | IC50 [1, 7] | IC50 [2, 8] | IC50 [3, 9] | Structure (SMILES) | also measured
– | – | – | 0.96 nM | 940 nM | 0.64 nM | Cc1c(-c2[nH]c3ccc(C4CCC(N(C)C)CC4)nc3c2C(C)C)cn2ncnc2c1C (stereo not drawn) [Example 353] | –
3 nM | 1470 nM | 1.4 nM | – | – | – | Cc1c(-c2[nH]c3ccc(C4CCC(N(C)CC(N)=O)CC4)nc3c2C(C)C)cn2ncnc2c1C (stereo not drawn) [Example 406] | –
– | – | – | 7.9 nM | 3200 nM | 4.2 nM | Cc1c(-c2[nH]c3ccc(C4CCC(N(C)CCO)CC4)nc3c2C(C)C)cn2ncnc2c1C (stereo not drawn) [Example 365] | –
14 nM | 5070 nM | 30 nM | – | – | – | Cc1c(-c2[nH]c3ccc(C4CC(N(C)CC(=O)N(C)C)C4)nc3c2C(C)C)cn2ncnc2c1C (stereo not drawn) [Example 622] | –
– | – | – | 0.9 nM | 3420 nM | 2.9 nM | COc1ncc(CNC2CCN(c3ccc4[nH]c(-c5cn6ncnc6c(C)c5C)c(C(C)C)c4n3)CC2)cn1 [Example 72] | –
– | – | – | 2.9 nM | 4300 nM | 0.51 nM | COc1cc(-c2[nH]c3ccc(N4CCN(C(=O)CCN(C)C)CC4)nc3c2C(C)C)cn2ncnc12 [Example 99] | –
7.9 nM | 1960 nM | 2.4 nM | – | – | – | Cc1c(-c2[nH]c3ccc(C4CC(N(C)C(=O)CN(C)C)C4)nc3c2C(C)C)cn2ncnc2c1C (stereo not drawn) [Example 615] | –
0.89 nM | 6230 nM | 0.46 nM | – | – | – | Cc1c(-c2[nH]c3ccc(N4C[C@@H](C)N(C(=O)CN5CCCC5)C[C@@H]4C)nc3c2C(C)C)cn2ncnc2c1C [Example 738, 1-((2R,5S)-4-(2-(7,8-dimethyl-[1,2,4]triazolo[1,5-a]pyridin-6-yl)-3-isopropyl-1H-pyrrolo[3,2-b]pyridin-5-yl)-2,5-dimethylpiperazin-1-yl)-2-(pyrrolidin-1-yl)ethan-1-one] | –
16 nM | 5770 nM | 39 nM | – | – | – | Cc1c(-c2[nH]c3ccc(CCC4CN(C5COC5)C4)nc3c2C(C)C)cn2ncnc2c1C [Example 687] | –
– | – | – | 2.6 nM | 35400 nM | 5.4 nM | COc1cc(-c2[nH]c3ccc(N4CCN(CC(=O)N(C)C)CC4)nc3c2C(C)C)cn2ncnc12 [Example 128] | –
